Test results: patent publication US20230293470A1, “APPLICATION OF THYROID HORMONES AND ITS ANALOGUES IN PREPARATION OF DRUGS FOR TREATING ALPHA-THALASSEMIA” (SHANGHAI SPH RARE DISEASE PHARMACEUTICAL CO., LTD., priority 2020, published 2023)

What was measured:
[1] = test system: zeta-globin gene (hbae5) expression in zebrafish embryos; test: Whole-mount mRNA in situ hybridization (WISH) of zeta-globin gene (hbae5) in zebrafish embryos; format: in vivo; conditions: 5 μmon, from 96 hours post fertilization, 24 hours treatment
Protocol: (§1) K562 cells were cultured in RPMI 1640 medium supplemented with 10% (v/v) fetal bovine serum; Hemin was dissolved into 0.2 mol/L NaOH solution, and the working concentration for treating K562 cells is 20 μmon; Triac, T3 and T4 were dissolved into dimethyl sulfoxide (DMSO), and the working concentration for treating K562 cells and zebrafish embryos is 20 μmon and 5 μmon, respectively.
During the development of zebrafish embryos, Triac, T3 and T4 were incubated with the zebrafish embryos at 96 hours post fertilization. After treatment with Triac, T3 and T4 for 24 hours, respectively, zebrafish embryos were fixed by 4% paraformaldehyde. The expression of zeta-globin gene (hbae5) was detected by Whole-mount mRNA in situ hybridization (WISH).

[2] = test system: zeta-globin gene (hbae5) expression in zebrafish embryos; test: qPCR of zeta-globin gene (hbae5) expression in zebrafish embryos; format: in vivo; conditions: 5 μmon, from 96 hours post fertilization, 24 hours treatment
Protocol: as §1
During the development of zebrafish embryos, Triac, T3 and T4 were incubated with the zebrafish embryos at 96 hours post fertilization. After treatment with Triac, T3 and T4 for 24 hours, respectively, zebrafish embryos were collected. TRIzol reagent (Invitrogen) was used to extract total RNA, then a reverse transcription kit (ReverTra Ace, TOYOBO) was used to synthesize cDNA, and finally, a SYBRGreen Realtime PCR Master Mix (TOYOBO) reagent was used to perform quantitative PCR.
(§2) A quantitative PCR reaction system was as follows:
(§3) Conditions for a quantitative PCR reaction were as follows: • Hot start: 95° C., 10 minutes; • Denaturation: 95° C., 10 seconds; and • Annealing/stretching: 60° C., 30 seconds. • 40 cycles.
(§4) Dissolution Curve Analysis.

[3] = test system: zeta-globin gene (HBZ) expression in K562 cells; test: qPCR of zeta-globin gene (HBZ) expression in hemin-treated K562 cells; format: cell-based, human; conditions: hemin 20 μmon plus Triac 20 μmon, 72 hours
Protocol: as §1
K562 cells were treated with hemin or hemin plus Triac for 72 hours, respectively, centrifugation was performed at 2000 rpm for 5 minutes to collect cells, a TRIzol reagent (Invitrogen) was used to extract total RNA, then a reverse transcription kit (ReverTra Ace, TOYOBO) was used to synthesize cDNA, and finally, a SYBR Green Realtime PCR Master Mix (TOYOBO) reagent was used to perform quantitative PCR.
as §2, §3, §4

Row | SMILES | induction of expression of zeta-globin gene (hbae5), WISH [1] | up-regulation of expression of zeta-globin gene (hbae5), qPCR [2] | up-regulation of expression of zeta-globin gene (HBZ), qPCR [3]
1 | N[C@@H](Cc1cc(I)c(Oc2ccc(O)c(I)c2)c(I)c1)C(=O)O [T3, 3,3′,5-Triiodo-L-thyronine] | significantly induce | 31 folds | 
2 | N[C@@H](Cc1cc(I)c(Oc2cc(I)c(O)c(I)c2)c(I)c1)C(=O)O [T4, 3,3′,5,5′-tetraiodothyronine] | significantly induce | 41 folds | 
3 | O=C(O)Cc1cc(I)c(Oc2ccc(O)c(I)c2)c(I)c1 [Triac, 2-[4-(4-hydroxy-3-iodophenoxy)-3,5-diiodophenyl] acetic acid] | significantly induce | 76 folds | 50.9 folds
